Read-outs that look alike come from different tables or passages of the source.
Key:
in vivo = conditions: 50 mg/kg
Description: The whole blood samples were centrifuged at rcf 2000 for 5 min for the plasma separation of plasma. The plasma samples were stored at −80 °C before analysis. All the samples were analyzed with a Q Exactive orbitrap MS coupled with UHPLC (Thermo Fisher Scientific, San Jose, CA). LC-Q Exactive MS was operated in the same parameters used in the cell uptake assay above. The concentration of these compounds in plasma was quantified using individual calibration curves.
PK parameters such as half-time (T1/2), area under the plasma concentration–time curve during the period of observation (AUC0–t), area under the plasma concentration–time curve from zero to infinity (AUC0–∞), clearance normalized by the bioavailability (CL/F), and the mean residence time (MRT) were calculated by WinNonlin software (Certara, Princeton, NJ) by noncompartmental analysis. The plasma concentration–time curves were plotted in Prism 7 (GraphPad, San Diego, CA) as mean ± S.D.
Mouse PK of CDD compounds, 50 mg/kg
samples we re collected at 0, 5, 10, 15, 30 m in , 1, 2, 4, 6 and 8 h af ter dosing. P la sm a samples we re separated, prepared and analyzed wit h LC-MS. The compound
± SD (n=4). Tmax, time to rea ch the m a ximum pla sma concentration. Cm ax, maximum p las m a concentration. T1/2, half-lif e . AUC, area under the cu rve . CL, clea ran ce . F,
bioavailability. M R T, mean residence time.

renin = biological target: T1, renin (Homo sapiens, UniProt P00797); assay: Human protease off-target assay, commercial kit; assay type: biochemical; conditions: 11.1 µM compound
T1 construct: purchased BPS Bioscience 80211
T1 sequence (P00797 67-406): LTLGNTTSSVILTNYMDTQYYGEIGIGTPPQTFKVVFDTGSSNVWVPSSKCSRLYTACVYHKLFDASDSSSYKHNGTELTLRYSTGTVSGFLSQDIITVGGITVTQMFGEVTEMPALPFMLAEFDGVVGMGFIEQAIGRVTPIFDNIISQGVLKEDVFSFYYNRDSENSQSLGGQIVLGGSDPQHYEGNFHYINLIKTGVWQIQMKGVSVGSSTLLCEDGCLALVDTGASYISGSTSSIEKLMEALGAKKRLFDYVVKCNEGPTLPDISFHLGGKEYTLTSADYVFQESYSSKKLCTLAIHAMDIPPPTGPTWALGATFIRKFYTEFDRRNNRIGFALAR
Description: (§1) These assays were done exactly as we described earlier. In brief, commercial kits were used for all four human proteases as follows: Cathepsin B (BPS Bioscience, #79590), Renin (BPS Bioscience, #80211), Thrombin (Sigma-Aldrich, #MAK243), and MMP-1 (Biovision, #K794-100). All assays were run in kinetic mode and at RT, except MMP-1, which was run at 37 °C. Positive controls were used for all assays, i.e., E64 for Cathepsin B, Aliskiren for Renin, CDD-1472 for Thrombin, and GM 6001 for MMP-1. Activities were obtained from linear initial progress curves, and fractional activities were calculated from reactions with no inhibitors[17],[19],[34].
(§2) Supplementary Figure 4. Potential off-target inhibition of major proteases, i.e. thrombin (a serine protease), cathepsin B (a cysteine protease like Mpro), renin (an
(§3) control inhibitors as indicated. S9 […]

thrombin = biological target: T2, thrombin (Homo sapiens, UniProt P00734); assay: Human protease off-target assay, commercial kit; assay type: biochemical; conditions: 10 µM compound
T2 construct: purchased Sigma-Aldrich MAK243
Description: as §1, §2, §3

cathepsin B = biological target: T3, cathepsin B (Homo sapiens, UniProt P07858); assay: Human protease off-target assay, commercial kit; assay type: biochemical; conditions: 10 µM compound
T3 construct: purchased BPS Bioscience 79590
Description: as §1, §2, §3

[1] = biological target: T4, matrix metallopeptidase-1 (MMP-1) (Homo sapiens, UniProt P03956); assay: Human protease off-target assay, commercial kit; assay type: biochemical; conditions: 10 µM compound, 37 °C
T4 construct: purchased Biovision K794-100
T4 sequence (P03956 100-469): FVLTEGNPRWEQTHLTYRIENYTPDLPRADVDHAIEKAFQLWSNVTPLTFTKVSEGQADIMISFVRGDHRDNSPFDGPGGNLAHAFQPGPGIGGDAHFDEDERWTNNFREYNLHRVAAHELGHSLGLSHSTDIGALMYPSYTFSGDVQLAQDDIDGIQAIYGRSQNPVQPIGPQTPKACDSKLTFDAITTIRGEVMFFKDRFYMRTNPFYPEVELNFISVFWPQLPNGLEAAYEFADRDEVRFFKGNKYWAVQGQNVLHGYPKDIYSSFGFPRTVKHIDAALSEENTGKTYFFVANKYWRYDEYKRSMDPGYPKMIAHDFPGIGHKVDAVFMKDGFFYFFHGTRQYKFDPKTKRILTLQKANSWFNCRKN
Description: as §1, §2, §3

in vitro = conditions: human
[2] = assay type: in vitro ADME, mouse; conditions: 10 μM
Description: (§4) At time points of 0, 30, 60, and 120 min, 15 μL of the samples were taken out, and the reactions were terminated by adding 75 μL of ice-cold methanol. The reaction mixtures were then vortexed for 30 s and centrifuged at 15,000 rcf for 15 min. […] The percentage of test compound remaining at the individual time points was normalized by the 0-min.
(§5) 10 µM in duplicate (n=2) at 37 °C. The reactions were terminated at time points of 0, 30, 60 and 120 min by adding ice-cold methanol. Following centrifugation, the supernatant was analyzed using UHPLC-Q E xa ct ive Orbitrap MS. The percentage of test compound remaining at the individual time points relative to the 0 min sample was determined S12

HepG2 cells [3] = assay: cells; conditions: Homo sapiens, HepG2, 24 h, read-out: IC50 (HepG2 cell viability)
HepG2 cells [4] = tested on: HepG2 cells
[5] = assay type: in vitro ADME, human; conditions: 10 μM
Description: as §4, §5

HepG2 cells [6] = assay type: in vitro ADME; conditions: 10 μM, 2 h
Description: The plate was incubated at 37 °C for another 2 h, and the medium in the plate was then decanted. The cells were rinsed with 1 mL of 1× DPBS three times, trypsinized at 37 °C for 3.5 min, centrifuged, and the cell pellets from each well were reconstituted in 500 μL of MeOH/H2O (vol/vol 1/1). […] The mixtures were centrifuged at 15,000 rcf for 15 min. Three microliters of the supernatant were injected into UHPLC-Q Exactive Orbitrap MS (Thermo Fisher Scientific) equipped with a 50 × 4.6-mm column (XDB C-18; Agilent Technologies) for analysis. The column temperature was set at 40 °C. The mobile phase system was (A) water (containing 0.1% formic acid) and (B) acetonitrile (containing 0.1% formic acid), with a flow rate of 0.3 mL/min. The gradient elution program was set as follows: 0 to 0.25 min, 40% B; 0.25 to 1.5 min, 40 to 98% B; 1.5 to 3.5 min, 98% B; 3.5 to 3.8 min, 98 to 40% B; 3.8 to 5 min, 40% B. Ultrapure nitrogen was used as the sheath (45 arbitrary units), auxiliary (10 arbitrary units), and sweep (1.0 arbitrary unit) gas. The capillary and auxiliary gas temperatures were 275 °C and 380 °C, respectively. The spray voltage was 3.75 kV. […]
were expressed as the intracellular concentrations (peak areas) of these compounds. […]
and homogenized. The intracellular concentrations were measured with UHPLC-Q E xa ct ive Orbitrap MS. ND stands for “not detected”.

M^pro variant A173V = conditions: previously shown; cited from earlier work
[7] = tested on: M^pro variant ΔP168/A173V; conditions: previously shown; cited from earlier work

Row | SMILES | MRT inf (in vivo; male, mouse, in vivo, po) [h] | MRT last (in vivo; male, mouse, in vivo, po) [h] | Tmax (in vivo; male, mouse, in vivo, po) [h] | half-life (in vivo; male, mouse, plasma, oral) [h] | CL/F (in vivo; mice, per oral gavage (po.), n=4, mean ± SD) | inhibition of enzymatic activity (renin) | inhibition of enzymatic activity (thrombin) | inhibition of enzymatic activity (cathepsin B) | inhibition of enzymatic activity [1] | viability at 24 h, 100 µM (in vitro) [%] | compound remaining in plasma ([2]; mouse, plasma, 2 h) [%] | IC50 (HepG2 cells [3]) [µM] | cytotoxicity (HepG2 cells [4]) | compound remaining in plasma ([5]; human, plasma, 2 h) [%] | compound remaining in plasma ([2]; mouse plasma, 37 °C, after 2 h incubation) [%] | cytotoxicity (HepG2 cells [4]; HepG2 cells) | compound remaining in plasma ([5]; human plasma, 37 °C, after 2 h incubation) [%] | cell uptake (permeability) (HepG2 cells [6]) | increase in Ki relative to WT (M^pro variant A173V) [fold] | increase in Ki relative to WT [7] [fold]
1 | CNC(=O)[C@H]1C[C@H](n2c(-c3cncc4ccccc34)nc3cccc(C(=O)N[C@@H](C)c4ccc5ccccc5c4)c32)C1 [CDD-1819] | 1.42 ± 0.16 | 1.31 ± 0.12 | 0.33 ± 0.14 | 1.2 ± 0.1 | 7.26 ± 1.81 mg/ ( hr*µmol/L)/kg | None of these inhibitors blocked the enzymatic activity | None of these inhibitors blocked the enzymatic activity | None of these inhibitors blocked the enzymatic activity | None of these inhibitors blocked the enzymatic activity | > 80 | 80 | > 100 | no obvious cytotoxicity | 80 | – | – | – | – | – | –
2 | CCC[C@H](NC(=O)c1cccc2nc(-c3cncc4ccccc34)n([C@H]3C[C@H](C(=O)NC)C3)c12)c1ccc(C(F)(F)F)cc1 [CDD-1733] | – | – | – | – | – | None of these inhibitors blocked the enzymatic activity | None of these inhibitors blocked the enzymatic activity | None of these inhibitors blocked the enzymatic activity | None of these inhibitors blocked the enzymatic activity | – | – | > 100 | – | – | 80 | no obvious cytotoxicity | 80 | good permeability | – | –
3 | CC(C)(C)[C@H](NC(=O)C(F)(F)F)C(=O)N1C[C@H]2[C@@H]([C@H]1C(=O)N[C@H](C#N)C[C@@H]1CCNC1=O)C2(C)C [Nirmatrelvir, nirmatrelvir] | – | – | – | – | – | – | – | – | – | – | – | – | – | – | – | – | – | – | 50 | 600
